Converted amounts (≈) assume the structure as drawn.
What was measured:
Type in all cases: functional
P388 [1] = experiment: In vivo cytotoxicity against mouse P388 cells at 25 mg/kg relative to control
P388 [2] = experiment: In vivo cytotoxicity against mouse P388 cells at 12.5 mg/kg relative to control
[3] = Cytotoxicity against mouse 9PS cells; settings: read-out: ED50 (the source's name)
P388 [4] = experiment: In vivo cytotoxicity against mouse P388 cells at 0.75 to 6 mg/kg relative to control; settings: dose mg/kg 0.75-6
M5076 [5] = experiment: In vivo antitumor activity against mouse M5076 cells assessed as life extension at 0.38 to 3 mg/kg; settings: dose mg/kg 0.38-3
M5076 [6] = experiment: In vivo cytotoxicity against mouse M5076 cells at 0.38 to 3 mg/kg relative to control; settings: dose mg/kg 0.38-3
P388 [7] = experiment: In vivo antitumor activity against mouse P388 cells assessed as life extension at 0.75 to 12.5 mg/kg; settings: dose mg/kg 0.75-12.5

## O=C1N[C@@H]2C(=C[C@H](O)[C@@H](O)[C@H]2O)c2cc3c(cc21)OCO3
P388 [1]
  T/C: 161
P388 [2]
  T/C: 161
[3]
  EC50: 0.02 µg/mL (≈ 0.0687 µM)

## O=C1N[C@H]2[C@H](O)[C@H](O)[C@@H](O)[C@H](O)[C@@H]2c2cc3c(c(O)c21)OCO3 [PANCRATISTATIN]
P388 [4]
  T/C: 138
P388 [2]
  T/C: 206
[3]
  EC50: 0.01 µg/mL (≈ 0.0307 µM)
M5076 [5]
  Activity: 53%
M5076 [6]
  T/C: 153
P388 [7]
  Activity: 38%
